Measured values published in patent US8445707B1, “Compound, composition and uses thereof” (Krisani Biosciences (P) Ltd., priority 2012, dated 2013).
Read-outs that look alike come from different tables or passages of the source.

Assay: Pharmacokinetics of KB-ND-002 compared to Cysteamine Hydrochloride and EPA in mouse plasma and brain after oral administration
Assay type: in vivo, male mice
Details: for maximum concentration of Cysteamine after dosing compared to endogenous levels in control group animals: analyte Cysteamine
Method: Method of Treatment, Testing and Results Using the Final Compound of formula 1 at Charles River Labs: Pharmacokinetics of KB-ND-002 compared to Cysteamine Hydrochloride and EPA in Mouse Plasma and Brain
Parameter estimation was performed on mean plasma and brain Eicosapentanoiec acid, KB-ND-002 and Cysteamine concentration vs nominal sampling time values from 3 animals per timepoint. Parameter estimates were derived for each analyte, and matrix using a non-compartmental approach in WinNonlin Enterprise version 5.2.1 (Pharsight Corp., Mountain View, Calif., USA) in accordance with Charles River standard operating procedures. A WinNonlin regression analysis was performed with each concentration vs time profile reviewed by means of visual inspection to appropriately characterise the apparent terminal elimination phase and optimise the reliability of the lambda-z estimation.
Following Oral Administration of KB-ND-002 (Formula 1), Cysteamine or Eicosapentanoiec Acid in Male Mice, Concentration Vs Time Profiles were Partially Evaluable for PK Purposes.

NCCS [Cysteamine]
systemic exposure to Cysteamine, comparison between groups (112 mg/kg Cysteamine administered): greatest
maximum concentration of Cysteamine after dosing compared to endogenous levels in control group animals (brain, oral, male mice): up to 10 fold
maximum concentration of Cysteamine after dosing compared to endogenous levels in control group animals (plasma, oral, male mice): over 400 fold
Cysteamine concentrations quantifiable over sampling period (brain, sampling duration 5 h): quantifiable for the entire duration of sampling
Tmax (male, mouse, brain, Group 4, 112 mg/kg Cysteamine oral, read-out: time of peak concentration of Cysteamine (Tmax)): 30 min
Tmax (male, mouse, plasma, Group 4, 112 mg/kg Cysteamine oral, read-out: time of peak concentration of Cysteamine (Tmax)): 4.8 min
Cysteamine concentrations observed over sampling period (plasma, only following administration of Cysteamine (Group 4)): only consistently observed for the entire duration of sampling

CC/C=C\C/C=C\C/C=C\C/C=C\C/C=C\CCCC(=O)O [Eicosapentanoiec acid]
systemic exposure to Eicosapentanoiec acid, comparison between groups (112 mg/kg Eicosapentanoiec acid administered): greatest
maximum concentration of Eicosapentanoiec acid after dosing compared to endogenous levels in control group animals (analyte Eicosapentanoiec acid, plasma, oral, male mice): over 20 fold
Tmax (male, mouse, brain, Group 5, 112 mg/kg Eicosapentanoiec acid oral, read-out: time of peak concentration of Eicosapentanoiec acid (Tmax)): 60 min
Tmax (male, mouse, plasma, Group 5, 112 mg/kg Eicosapentanoiec acid oral, read-out: time of peak concentration of Eicosapentanoiec acid (Tmax)): 60 min
Eicosapentanoiec acid concentrations quantifiable over sampling period (plasma and brain, sampling duration 5 h): quantifiable for the entire duration of sampling

CC/C=C\C/C=C\C/C=C\C/C=C\C/C=C/CCCC(=O)NCCSC(C)=O [KB-ND-002]
Kp (male, mouse, brain and plasma, oral, brain at highest dose vs plasma after low dose (60 mg/kg), read-out: systemic exposure to KB-ND-002 in brain relative to plasma): < 0.01
dose proportionality based on dose normalised estimates of Cmax and AUC(0-t) (plasma, oral KB-ND-002): sub-proportional
